The NIST ThermoML archive (doi:10.1016/j.jct.2016.06.034)

Experiment: mn = molality of the nth substance listed, in mol/kg
Conditions: for electrical conductivity / speed of sound / mass density: 84.5 kPa, Liquid; for electrical conductivity: Alternating current cell with electrodes; for speed of sound: Frequency=3 MHz, Sing-around technique in a fixed-path interferometer; for mass density: Vibrating tube method; for surface tension liquid-gas: platinum plate method

CCCCCCCCCCn1cc[n+](C)c1.[Br-] [1-decyl-3-methylimidazolium bromide] + O
Conditions | electrical conductivity [S/m] | mass density [kg/m3] | speed of sound [m/s] | surface tension liquid-gas [mN/m]
293.15 K, m1 = 0.00228 | 0.0203 | – | – | –
293.15 K, m1 = 0.00309 | 0.0273 | – | – | –
293.15 K, m1 = 0.00382 | 0.0335 | – | – | –
293.15 K, m1 = 0.00535 | 0.0458 | – | – | –
293.15 K, m1 = 0.00813 | 0.0678 | – | – | –
293.15 K, m1 = 0.0095 | – | 998.589 | 1484.6 | –
293.15 K, m1 = 0.01113 | 0.0909 | – | – | –
293.15 K, m1 = 0.01379 | – | 998.766 | 1485.5 | –
293.15 K, m1 = 0.01397 | 0.112 | – | – | –
293.15 K, m1 = 0.01652 | – | 998.876 | 1486.1 | –
293.15 K, m1 = 0.01667 | 0.132 | – | – | –
293.15 K, m1 = 0.01935 | 0.152 | – | – | –
293.15 K, m1 = 0.02179 | – | 999.09 | 1487.2 | –
293.15 K, m1 = 0.02193 | 0.17 | – | – | –
293.15 K, m1 = 0.02449 | 0.187 | – | – | –
293.15 K, m1 = 0.02615 | – | 999.268 | 1488 | –
293.15 K, m1 = 0.02695 | 0.204 | – | – | –
293.15 K, m1 = 0.02918 | 0.219 | – | – | –
293.15 K, m1 = 0.03106 | – | 999.467 | 1489 | –
293.15 K, m1 = 0.0311 | 0.231 | – | – | –
293.15 K, m1 = 0.03299 | 0.243 | – | – | –
293.15 K, m1 = 0.03338 | – | 999.559 | 1489.4 | –
293.15 K, m1 = 0.03499 | 0.256 | – | – | –
293.15 K, m1 = 0.03691 | 0.269 | – | – | –
293.15 K, m1 = 0.03819 | – | 999.755 | 1490.3 | –
293.15 K, m1 = 0.03912 | 0.282 | – | – | –
293.15 K, m1 = 0.0406 | – | 999.853 | 1490.5 | –
293.15 K, m1 = 0.04083 | 0.292 | – | – | –
293.15 K, m1 = 0.0425 | 0.3 | – | – | –
293.15 K, m1 = 0.04332 | – | 999.954 | 1490.9 | –
293.15 K, m1 = 0.04369 | 0.305 | – | – | –
293.15 K, m1 = 0.04545 | 0.311 | – | – | –
293.15 K, m1 = 0.04614 | – | 1000.06 | 1491.1 | –
293.15 K, m1 = 0.04751 | 0.317 | – | – | –
293.15 K, m1 = 0.04952 | 0.323 | – | – | –
293.15 K, m1 = 0.05149 | 0.327 | – | – | –
293.15 K, m1 = 0.05344 | 0.332 | – | – | –
293.15 K, m1 = 0.05515 | – | 1000.37 | 1491.4 | –
293.15 K, m1 = 0.05532 | 0.336 | – | – | –
293.15 K, m1 = 0.058 | 0.342 | – | – | –
293.15 K, m1 = 0.05963 | 0.345 | – | – | –
293.15 K, m1 = 0.06396 | – | 1000.67 | 1491.6 | –
293.15 K, m1 = 0.07815 | – | 1001.15 | 1491.8 | –
293.15 K, m1 = 0.122 | – | 1002.6 | 1492.4 | –
293.15 K, m1 = 0.1726 | – | 1004.24 | 1493 | –
293.15 K, m1 = 0.2247 | – | 1005.89 | 1493.8 | –
293.15 K, m1 = 0.2539 | – | 1006.79 | 1494.1 | –
298.15 K, m1 = 1e-05 | 0.000165 | – | – | –
298.15 K, m1 = 3e-05 | 0.00031 | – | – | –
298.15 K, m1 = 4e-05 | 0.000454 | – | – | –
298.15 K, m1 = 5e-05 | 0.000592 | – | – | –
298.15 K, m1 = 7e-05 | 0.000739 | – | – | –
298.15 K, m1 = 0.0001 | 0.00103 | – | – | –
298.15 K, m1 = 0.00012 | 0.00132 | – | – | –
298.15 K, m1 = 0.00018 | 0.00193 | – | – | –
298.15 K, m1 = 0.00025 | 0.00268 | – | – | –
298.15 K, m1 = 0.0004 | 0.00418 | – | – | –
298.15 K, m1 = 0.0006 | 0.00622 | – | – | –
298.15 K, m1 = 0.00096 | 0.00987 | – | – | –
298.15 K, m1 = 0.00171 | 0.0172 | – | – | –
298.15 K, m1 = 0.00264 | 0.0265 | – | – | –
298.15 K, m1 = 0.00371 | 0.0368 | – | – | –
298.15 K, m1 = 0.00412 | – | – | – | 54.68
298.15 K, m1 = 0.00504 | 0.0494 | – | – | –
298.15 K, m1 = 0.00703 | 0.0685 | – | – | –
298.15 K, m1 = 0.00741 | – | – | – | 50.92
298.15 K, m1 = 0.00984 | 0.0933 | – | – | –
298.15 K, m1 = 0.01142 | – | – | – | 47.08
298.15 K, m1 = 0.01267 | 0.117 | – | – | –
298.15 K, m1 = 0.01525 | 0.139 | – | – | –
298.15 K, m1 = 0.01559 | – | – | – | 43.86
298.15 K, m1 = 0.01793 | 0.16 | – | – | –
298.15 K, m1 = 0.01865 | – | – | – | 42.13
298.15 K, m1 = 0.02048 | 0.181 | – | – | –
298.15 K, m1 = 0.023 | 0.201 | – | – | –
298.15 K, m1 = 0.02466 | – | – | – | 39.8
298.15 K, m1 = 0.02535 | 0.219 | – | – | –
298.15 K, m1 = 0.02772 | 0.237 | – | – | –
298.15 K, m1 = 0.02893 | – | – | – | 38.51
298.15 K, m1 = 0.02961 | 0.251 | – | – | –
298.15 K, m1 = 0.03171 | 0.267 | – | – | –
298.15 K, m1 = 0.03351 | – | – | – | 37.65
298.15 K, m1 = 0.03974 | – | – | – | 37.31
298.15 K, m1 = 0.04641 | – | – | – | 37.49
298.15 K, m1 = 0.05292 | – | – | – | 38.51
298.15 K, m1 = 0.05743 | – | – | – | 38.59
298.15 K, m1 = 0.06462 | – | – | – | 38.74
298.15 K, m1 = 0.0747 | – | – | – | 38.93
298.15 K, m1 = 0.0901 | – | – | – | 38.82
298.15 K, m1 = 0.1219 | – | – | – | 38.81
298.15 K, m1 = 0.1645 | – | – | – | 38.91
